The term IC50 denotes the concentration that gives 50% inhibition.

The subject of assay [1] is HCT116 WT cells. Kind of assay: HCT116 WT cell proliferation / viability (CellTiter-Glo, 6 days). In kind it is cell-based. Particulars: Homo sapiens, HCT-116, 144 h, HCT116 WT cells, 6 days, CellTiter-Glo; read-out: HCT-116 WT IC50. As to the method: (§1) HCT116 MTAP null and WT cells were seeded in 96-well tissue culture plates in RPMI 1640 media+10% fetal bovine serum. Plates were incubated overnight at 37° C. and 5% CO2. Cells were then treated with an 8- or 9-point serial dilution of compound, using a top concentration of 1, or 10 μM, 1:3 serial dilution steps and, a DMSO-only control. Cells were incubated in the presence of drug for 6 days. Effects on cell viability were measured with the CellTiter-Glo® Luminescent Cell Viability Assay (Promega) per manufacturer's recommendation. Assay plates were read on an EnVision™ Multilabel Reader using the Ultra-Sensitive luminescence module. IC50 values were calculated with GraphPad Prism v 5.01 using symmetrical sigmoidal dose-response least squares fit with Hill slope fixed to −1 and top constrain to 100% or GeneData Screener using a 4-parameter logistic model to fit dose response curves.
(§2) Alternatively, compounds could be assayed with a 384 well plate format:
(§3) Compounds were pre-spotted into 384 well plates with a 22-point serial dilution of compound, using a top concentration of 10 or 50 μM, 1:2 serial dilution steps and, a DMSO-only control. HCT116 MTAP null and WT cells were then seeded as above and after 6 days effects on cell viability were measured with the CellTiter-Glo® Luminescent Cell Viability Assay (Promega). Assay plates were read as above and IC50 values were calculated with GeneData Screener using a 4-parameter logistic model to fit dose response curves. The reported IC50 represents the value where the curve transits 50% of control.
For orientation: In ATP-based viability assays light output follows the ATP content of the culture.

Assay [2] deals with HCT116 MTAP null cells. Kind of assay: HCT116 MTAP null cell proliferation / viability (CellTiter-Glo, 6 days). Type of assay: cell-based. The settings on record: HCT116-MTAP null, 144 h, HCT116 MTAP null cells, 6 days, CellTiter-Glo; read-out: HCT-116 MTAP null IC50. As to the method:
as §1, §2, §3

As to `CN(Cc1ccc(C(F)(F)F)cn1)C(=O)c1ccc2nc(N)c3c(c2c1)COC3(C)C` [Example 932, 4-amino-N,3,3-trimethyl-N-((5-(trifluoromethyl)pyridin-2-yl)methyl)-1,3-dihydrofuro[3,4-c]quinoline-8-carboxamide], the IC50 turned out to be 1.7 µM in assay [1] and 0.86 µM in assay [2].

With `CN(Cc1ccc(S(F)(F)(F)(F)F)cc1)C(=O)c1ccc2nc(N)c3cnn(C)c3c2c1` [Example 573, 4-amino-N,1-dimethyl-N-(4-(pentafluoro-lambda~6~- sulfanyl)benzyl)-1H-pyrazolo[4,3-c]quinoline-8-carboxamide], the IC50 in assay [1] stood at 3.73 µM; in assay [2], 0.085 µM.

Turning to `CC(C)N(Cc1ccc(C(F)(F)F)nn1)C(=O)c1cc2c3c(c(N)nc2cc1F)COC3` [Example 358, 4-amino-7-fluoro-N-(2-propanyl)-N-((6-(trifluoromethyl)-3-pyridazinyl)methyl)-1,3-dihydrofuro[3,4-c]quinoline-8-carboxamide], the figures for the IC50 in assay [1] and in assay [2] were 8.16 µM and 0.121 µM, respectively.

Regarding `CCOc1ccc(CN(C(=O)c2ccc3nc(N)c4c(c3c2)CO[C@@H]4C)C23CC(C2)C3)nn1` [Example 482, (3R)-4-amino-N-(bicyclo[1.1.1]pentan-1-yl)-N-((6-ethoxy-3-pyridazinyl)methyl)-3-methyl-1,3-dihydrofuro[3,4-c]quinoline-8-carboxamide], the results for the IC50 in assay [1] and in assay [2] were 2.64 µM and 0.052 µM, respectively.

As to `CCN(C(=O)c1cc2c3c(c(N)nc2cc1F)[C@@H](C)OC3)[C@H](C)c1ccc(C(F)(F)F)nn1` [Example 784, (3R)-4-amino-N-ethyl-7-fluoro-3-methyl-N-((1R)-1-(6-(trifluoromethyl)-3-pyridazinyl)ethyl)-1,3-dihydrofuro[3,4-c]quinoline-8-carboxamide], the IC50 in assay [1] came to 0.609 µM; in assay [2], 0.022 µM.

For the compound `C[C@H](c1ccc(C(F)(F)F)cn1)N(C(=O)c1cc2c3c(c(N)nc2cn1)[C@@H](C)OC3)C1CC1` (single isomer, unassigned) [Example 589], the results for the IC50 in assay [1] and in assay [2] were 0.815 µM and 0.029 µM, respectively.

`C[C@H](c1ncccn1)N(Cc1ccc(C(F)(F)F)nn1)C(=O)c1ccc2nc(N)c3c(c2c1)COC3` [Example 441, 4-amino-N-((1R)-1-(2-pyrimidinyl)ethyl)-N-((6-(trifluoromethyl)-3-pyridazinyl)methyl)-1,3-dihydrofuro[3,4-c]quinoline-8-carboxamide]: the IC50 worked out at 0.204 µM in assay [1] and 0.012 µM in assay [2].

With `N#Cc1ccc(CN(CC2CC2)C(=O)c2cc3c4c(c(N)nc3cn2)COC4)nc1` [Example 682, 4-amino-N-((5-cyano-2-pyridinyl)methyl)-N-(cyclopropylmethyl)-1,3-dihydrofuro[3,4-c][1,7]naphthyridine-8-carboxamide], the IC50 in assay [1] was determined as 3.4 µM; in assay [2] it was 0.087 µM.

As to `CC1OCc2c1c(N)nc1ccc(C(=O)N(Cc3ccc(C(F)(F)F)cn3)[C@H]3C[C@@H]3C(F)(F)F)cc21` (mixture of isomers) [Example 910, 4-amino-3-methyl-N-((1R,2R)-2-(trifluoromethyl)cyclopropyl)-N-((5-(trifluoromethyl)-2-pyridinyl)methyl)-1,3-dihydrofuro[3,4-c]quinoline-8-carboxamide and 4-amino-3-methyl-N-((1S,2S)-2-(trifluoromethyl)cyclopropyl)-N-((5-(trifluoromethyl)-2-pyridinyl)methyl)-1,3-dihydrofuro[3,4-c]quinoline-8-carboxamide], the IC50 in assay [1] was 3 µM; in assay [2], 0.022 µM.

Consider `CCN(C(=O)c1ccc2nc(N)c3c(c2c1)COC3)[C@H](c1ccc(C(F)(F)F)cn1)C1CC1` [Example 748, 4-amino-N-((S)-cyclopropyl(5-(trifluoromethyl)-2-pyridinyl)methyl)-N-ethyl-1,3-dihydrofuro[3,4-c]quinoline-8-carboxamide], for which the IC50 in assay [1] was 36.4 µM; in assay [2] it was 5.35 µM.

In the case of `CCN(C(=O)c1ccc2nc(N)c3c(c2c1)COC3)[C@H](C)c1ccc(C#N)cc1` (single isomer, unassigned) [Example 835], the results for the IC50 in assay [1] and in assay [2] were 3.76 µM and 0.126 µM, respectively.

As to `CCN(Cc1ccc(C(F)(F)F)nn1)C(=O)c1cc2c3c(c(N)nc2cn1)COC3` [Example 696, 4-amino-N-ethyl-N-((6-(trifluoromethyl)-3-pyridazinyl)methyl)-1,3-dihydrofuro[3,4-c][1,7]naphthyridine-8-carboxamide], the IC50 in assay [1] was greater than 10 µM; in assay [2], 0.261 µM.

Take `CCN(Cc1ccc(C(F)(F)F)cn1)C(=O)c1ccc2nc(N)c3cnn(C)c3c2c1` [Example 546, 4-amino-N-ethyl-1-methyl-N-((5-(trifluoromethyl)-2-pyridinyl)methyl)-1H-pyrazolo[4,3-c]quinoline-8-carboxamide]: the IC50 worked out at 0.976 µM in assay [1] and 0.019 µM in assay [2].

Regarding `Nc1nc2ccc(C(=O)N(Cc3ccc(C(F)(F)F)cn3)Cc3ncccn3)cc2c2ccsc12` [Example 636, 4-amino-N-(2-pyrimidinylmethyl)-N-((5-(trifluoromethyl)-2-pyridinyl)methyl)thieno[2,3-c]quinoline-8-carboxamide], the results for the IC50 in assay [1] and in assay [2] were 2.99 µM and 0.149 µM, respectively.

On to `CC(C)N(Cc1ccc(C2CC2)nc1)C(=O)c1cc2c3c(c(N)nc2cn1)[C@@H](C)OC3` [Example 412, (3R)-4-amino-N-((6-cyclopropyl-3-pyridinyl)methyl)-3-methyl-N-(2-propanyl)-1,3-dihydrofuro[3,4-c][1,7]naphthyridine-8-carboxamide], for which the IC50 is 25.6 µM in assay [1] and 0.397 µM in assay [2].

For the compound `C[C@H](c1ccc(C(F)(F)F)nn1)N(C)C(=O)c1ccc2nc(N)c3cnn(C)c3c2c1` (single isomer, unassigned) [Example 855], the IC50 in assay [1] was found to be 28.9 µM; in assay [2], 0.164 µM.

Regarding `CN(Cc1ccc(C2=CCOCC2)cn1)C(=O)c1ccc2nc(N)c3c(c2c1)COC3` [Example 429, 4-amino-N-((5-(3,6-dihydro-2H-pyran-4-yl)-2-pyridinyl)methyl)-N-methyl-1,3-dihydrofuro[3,4-c]quinoline-8-carboxamide], the IC50 is 31.8 µM in assay [1] and 1.26 µM in assay [2].

For `CN(Cc1ccc(C(F)(F)F)cn1)C(=O)c1cc2c3c(c(N)nc2cc1F)COC3` [Example 475, 4-amino-7-fluoro-N-methyl-N-((5-(trifluoromethyl)-2-pyridinyl)methyl)-1,3-dihydrofuro[3,4-c]quinoline-8-carboxamide], the IC50 in assay [1] is 7.81 µM; in assay [2], 0.375 µM.

For `CN(Cc1ncc(C(F)(F)F)cc1F)C(=O)c1cc2c3c(c(N)nc2cc1F)COC3` [Example 528, 4-amino-7-fluoro-N-((3-fluoro-5-(trifluoromethyl)-2-pyridinyl)methyl)-N-methyl-1,3-dihydrofuro[3,4-c]quinoline-8-carboxamide], the IC50 in assay [1] amounted to 5.42 µM; in assay [2], 0.111 µM.

`CC(C)N(Cc1ccc(OC(F)(F)F)cn1)C(=O)c1ccc2nc(N)c3c(c2c1)CO[C@@H]3C` [Example 465, (3R)-4-amino-3-methyl-N-(2-propanyl)-N-((5-(trifluoromethoxy)-2-pyridinyl)methyl)-1,3-dihydrofuro[3,4-c]quinoline-8-carboxamide]: the IC50 is 1.23 µM in assay [1] and 0.031 µM in assay [2].

`CCN(Cc1ccc(C(F)(F)F)cn1)C(=O)c1cc2c(cc1F)nc(N)c1c(C)nn(C)c12` [Example 560, 4-amino-N-ethyl-7-fluoro-1,3-dimethyl-N-((5-(trifluoromethyl)-2-pyridinyl)methyl)-1H-pyrazolo[4,3-c]quinoline-8-carboxamide]: the IC50 in assay [1] came to 4.14 µM; in assay [2], 0.056 µM.

Take `COC[C@@H](C)N(Cc1ccc(Br)nn1)C(=O)c1cnc2nc(N)c3c(c2c1)COC3` [Example 681, 4-amino-N-((6-bromo-3-pyridazinyl)methyl)-N-((2R)-1-methoxy-2-propanyl)-1,3-dihydrofuro[3,4-c][1,8]naphthyridine-8-carboxamide]: the IC50 in assay [1] turned out to be 6.49 µM; in assay [2], 0.367 µM.

Take `C[C@H]1OCc2c1c(N)nc1cnc(C(=O)N(C)Cc3ccc(C#N)cn3)cc21` [Example 312, (3R)-4-amino-N-((5-cyano-2-pyridinyl)methyl)-N,3-dimethyl-1,3-dihydrofuro[3,4-c][1,7]naphthyridine-8-carboxamide]: the figures for the IC50 in assay [1] and in assay [2] were greater than 10 µM and 1.09 µM, respectively.

With `Cn1ncc2c(N)nc3cc(C(F)(F)F)c(C(=O)N(Cc4ccc(C(F)(F)F)nn4)C4CC4)cc3c21` [Example 813, 4-amino-N-cyclopropyl-1-methyl-7-(trifluoromethyl)-N-((6-(trifluoromethyl)-3-pyridazinyl)methyl)-1H-pyrazolo[4,3-c]quinoline-8-carboxamide], the IC50 in assay [1] turned out to be 29.3 µM; in assay [2] it was 0.676 µM.

For the origin of these results see patent US20240101570A1 (AMGEN INC., priority 2020, published 2024).
